In publication PMC3156940 (Biochimica et biophysica acta, 2011):

Molecular target: KirBac1.1 (His6-KirBac1.1) (Burkholderia pseudomallei, UniProt P83698)
Conditions: 200 nM [3H]cholesterol, 0.1% CHAPS, pH 7.5, 37 °C, 2 h

Chain of KirBac1.1 (His6-KirBac1.1) (P83698 1-333): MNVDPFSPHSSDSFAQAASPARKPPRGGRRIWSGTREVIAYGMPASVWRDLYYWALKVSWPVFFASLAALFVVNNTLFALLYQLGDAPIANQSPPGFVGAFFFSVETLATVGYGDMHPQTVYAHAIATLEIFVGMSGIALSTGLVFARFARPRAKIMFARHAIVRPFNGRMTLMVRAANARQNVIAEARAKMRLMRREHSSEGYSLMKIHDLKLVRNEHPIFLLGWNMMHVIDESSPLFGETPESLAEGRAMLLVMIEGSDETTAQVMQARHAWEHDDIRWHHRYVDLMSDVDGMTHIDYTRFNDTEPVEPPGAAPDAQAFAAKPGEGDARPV

SMILES | competition with [3H]cholesterol
CC(C)CCC[C@@H](C)[C@H]1CC[C@H]2[C@@H]3CC=C4C[C@H](O)CC[C@]4(C)[C@H]3CC[C@]12C [epicholesterol] | epicholesterol efficiently competed with cholesterol for the channel binding
C[C@H](CCCC(C)(C)O)[C@H]1CC[C@H]2[C@@H]3CC=C4C[C@@H](O)CC[C@]4(C)[C@H]3CC[C@]12C [25-hydroxycholesterol] | 25-hydroxycholesterol was a significantly weaker competitor
